Test results published in ChEMBL document CHEMBL1121687, “2-Benzodioxinylaminoethanols: a new class of beta-adrenergic blocking and antihypertensive agents” (J Med Chem, 1981).
The source made the active and inactive calls. The calls are words filed in the database; no cut-off is given here.

Columns and labels:
[1] = molecular target: Beta-2 adrenergic receptor (Cavia porcellus) (UniProt Q8K4Z4); assay: Antagonist activity of compound against Beta-2 adrenergic receptor in isolated guinea pig trachea; Inactive at a concentration of 10e-4 M/L; assay type: functional, tissue-based
[2] = species on record: Rattus norvegicus; assay: Duration of action of compound was determined for antihypertensive action in rats; assay type: functional
[3] = tested on: Rattus norvegicus; assay: Change in diastolic blood pressure in anesthetized spontaneous hypertensive rats when 20 mg/kg of compound was administered intravenously; assay type: functional, Artery; details: route intravenous
[4] = tested on: Rattus norvegicus; assay: Change in systolic blood pressure in anesthetized spontaneous hypertensive rats when 20 mg/kg of compound was administered intravenously; assay type: functional, Artery; details: route intravenous
[5] = tested on: Canis lupus familiaris; assay: Dose required to induce at least 50% inhibition of the isoprenaline-induced effect, administered intravenously
[6] = tested on: Rattus norvegicus; assay: Change in diastolic blood pressure in anesthetized spontaneous hypertensive rats when 5 mg/kg of compound was administered intravenously; assay type: functional, Artery; details: route intravenous
[7] = tested on: Rattus norvegicus; assay: Change in systolic blood pressure in anesthetized spontaneous hypertensive rats when 5 mg/kg of compound was administered intravenously; assay type: functional, Artery; details: route intravenous
[8] = molecular target: Beta-1 adrenergic receptor (Cavia porcellus, UniProt B0FL73); assay: (§1) Antagonist activity of compound against Beta-1 adrenergic receptor in isolated guinea pig left atria; assay type: functional; details: read-out: pA2 app (converted)
[9] = tested on: Rattus norvegicus; assay: Duration of action of 10 mg/kg intravenous dose of compound was determined in SHR test for antihypertensive activity in rats; assay type: functional
[10] = tested on: Rattus norvegicus; assay: Change in diastolic blood pressure in anesthetized spontaneous hypertensive rats when 10 mg/kg of compound was administered intravenously; assay type: functional, Artery; details: route intravenous
[11] = tested on: Rattus norvegicus; assay: Change in systolic blood pressure in anesthetized spontaneous hypertensive rats when 10 mg/kg of compound was administered intravenously; assay type: functional, Artery; details: route intravenous
[12] = molecular target: Beta-2 adrenergic receptor (Cavia porcellus) (UniProt Q8K4Z4); assay: Antagonist activity of compound against Beta-2 adrenergic receptor in isolated guinea pig trachea; inactive; assay type: functional, tissue-based
[13] = tested on: Rattus norvegicus; assay: Duration of action of 20 mg/kg intravenous dose of compound was determined in SHR test for antihypertensive activity in rats; assay type: functional
[14] = tested on: Beta-2 adrenergic receptor (Cavia porcellus); assay: Antagonist activity of compound against beta-2 adrenergic receptor in isolated guinea pig trachea; Inactive at a concentration of 10e-4 M/L
[15] = molecular target: Beta-1 adrenergic receptor (Cavia porcellus) (UniProt B0FL73); assay: as §1; assay type: functional
[16] = tested on: Rattus norvegicus; assay: Duration of action of 5 mg/kg intravenous dose of compound was determined in SHR test for antihypertensive activity in rats; assay type: functional
[17] = molecular target: Beta-2 adrenergic receptor (Cavia porcellus) (UniProt Q8K4Z4); assay: Antagonist activity of compound (10e-4 mol/L) against beta 2-adrenergic receptor in isolated guinea pig trachea; Inactive at a concentration of 10e-4 M/L; assay type: functional, tissue-based
[18] = tested on: Rattus norvegicus; assay: Duration of action of 2 mg/kg intravenous dose of compound was determined in SHR test for antihypertensive activity in rats; assay type: functional
[19] = tested on: Rattus norvegicus; assay: Change in diastolic blood pressure in anesthetized spontaneous hypertensive rats when 2 mg/kg of compound was administered intravenously; assay type: functional, Artery; details: route intravenous
[20] = tested on: Rattus norvegicus; assay: Change in systolic blood pressure in anesthetized spontaneous hypertensive rats when 2.5 mg/kg of compound was administered intravenously; details: route intravenous
[21] = tested on: Rattus norvegicus; assay: as above; details: route intravenous; remark: listed apart in the source

Sequence of Beta-2 adrenergic receptor (Cavia porcellus) (UniProt Q8K4Z4) (Q8K4Z4 whole entry, looked up): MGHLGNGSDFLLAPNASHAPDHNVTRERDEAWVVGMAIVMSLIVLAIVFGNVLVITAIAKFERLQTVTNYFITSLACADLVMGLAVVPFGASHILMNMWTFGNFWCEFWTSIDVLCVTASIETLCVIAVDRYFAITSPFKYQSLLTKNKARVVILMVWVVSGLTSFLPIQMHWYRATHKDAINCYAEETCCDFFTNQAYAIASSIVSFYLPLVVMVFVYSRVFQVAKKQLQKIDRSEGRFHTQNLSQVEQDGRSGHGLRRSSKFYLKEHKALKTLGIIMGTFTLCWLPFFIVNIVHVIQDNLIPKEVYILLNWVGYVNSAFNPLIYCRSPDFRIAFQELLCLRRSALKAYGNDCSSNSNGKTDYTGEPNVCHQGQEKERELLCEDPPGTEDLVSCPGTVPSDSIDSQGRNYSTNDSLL
Sequence of Beta-1 adrenergic receptor (B0FL73 whole entry): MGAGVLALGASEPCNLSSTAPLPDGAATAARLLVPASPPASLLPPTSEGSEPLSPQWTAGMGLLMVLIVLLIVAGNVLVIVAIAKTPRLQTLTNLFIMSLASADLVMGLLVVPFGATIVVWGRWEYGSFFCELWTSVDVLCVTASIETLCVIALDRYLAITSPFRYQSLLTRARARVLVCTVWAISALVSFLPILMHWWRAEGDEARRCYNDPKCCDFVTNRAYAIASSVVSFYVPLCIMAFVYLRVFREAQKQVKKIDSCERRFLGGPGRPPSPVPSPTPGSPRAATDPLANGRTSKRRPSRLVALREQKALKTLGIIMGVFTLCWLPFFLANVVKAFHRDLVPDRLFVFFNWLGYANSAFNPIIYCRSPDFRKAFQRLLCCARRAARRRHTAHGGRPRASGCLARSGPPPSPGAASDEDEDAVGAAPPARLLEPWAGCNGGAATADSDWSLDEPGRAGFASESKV
Sequence of Beta-1 adrenergic receptor (Cavia porcellus) (B0FL73 1-467): as the sequence (B0FL73 whole entry) above

Row | Structure (SMILES) | Change in BP [3] | Change in BP [4] | Dose [5] | Change in BP [6] | Kb [8] | pD2 app [15] | Duration of action [16] | Duration of action [18] | Change in BP [19] | Change in BP [21] | other results
1 | CC(=O)Nc1ccc(OCC(O)CNC(C)C)cc1 (stereo not given) [PRACTOLOL] | -31% | -32% | 2.5 mg/kg | – | – | – | – | – | – | – | pD2 app [1]: inactive; Duration of action [2]: 45 min
2 | CC(C)NCC(O)COc1cccc2ccccc12 (stereo not given) [PROPRANOLOL] | – | – | 0.25 mg/kg | -64% | – | – | – | – | – | – | Duration of action [2]: 30 min; Change in BP [7]: -54%
3 | OC(CN1CCCCCC1)C1=COc2ccccc2O1 (stereo not given) | – | – | 10 mg/kg | – | 1170 nM | – | – | – | – | – | Duration of action [9]: 20 min; Change in BP [10]: -57%; Change in BP [11]: -44%
4 | OC(CN1CCN(c2cccc(C(F)(F)F)c2)CC1)C1=COc2ccccc2O1 (stereo not given) | -83% | -65% | 10 mg/kg | – | – | – | – | – | – | – | pD2 app [12]: inactive; Duration of action [13]: 20 min; pA2 app [14]: inactive
5 | CC(C)(C)NCC(O)C1=COc2ccccc2O1 (stereo not given) | – | – | 1 mg/kg | – | 8.51 nM | 4.8 | – | – | – | – | Duration of action [9]: 25 min; Change in BP [10]: -57%; Change in BP [11]: -50%
6 | CC(C)NCC(O)C1=COc2ccccc2O1 (stereo not given) | – | – | – | -60% | – | – | >45 min | – | – | – | Change in BP [7]: -49%
7 | COc1ccccc1N1CCN(CC(O)C2=COc3ccccc3O2)CC1 (stereo not given) | – | – | – | -41% | – | 4.84 | >45 min | >45 min | -41% | -41% | pA2 app [17]: inactive; Change in BP [20]: -41%
8 | OC(CN1CCCCC1)C1=COc2ccccc2O1 (stereo not given) | -78% | -66% | – | – | 617 nM | – | – | – | – | – | Duration of action [13]: 20 min
9 | Oc1nc2ccccc2n1C1CCN(CC(O)C2=COc3ccccc3O2)CC1 (stereo not given) | – | – | 1 mg/kg | -43% | – | 4.89 | >25 min | >25 min | -43% | -38% | pD2 app [1]: inactive; Change in BP [20]: -38%
10 | COc1ccc(CCNCC(O)C2=COc3ccccc3O2)cc1OC (stereo not given) | – | – | 1 mg/kg | – | – | – | >25 min | >25 min | -37% | -33% | –
